Where two headings read alike, the source gives them in different places.
Columns and labels:
[1] = Kinetic solubility by HPLC (pH 6.5); settings: for Aqueous solubility pH 6.5: kinetic, HPLC
Protocol: 1.7. Kinetic solubility by HPLC (pH 6.5)
Solubility was measured at pH 6.5 using an adapted miniaturized shake-flask method, in 96-well plate format.4,5 Briefly, 4 µL of a 10 mM stock in DMSO was added to a 96-well plate and evaporated using a GeneVac system. Phosphate buffer pH 6.5 was then added to the wells […]
At the end of this incubation, the […]
in the analysis plate. Analysis was then performed by HPLC-DAD and the solubility of each sample was determined from the corresponding calibration curve. […]

Cyclic voltammetry = type: physicochemical; settings: for Epa1: anodic peak potential; for Epa1 / Epc1: 0.1 V/s; for Epc1: cathodic peak potential; for Epc2: second nonreversible reduction
From the text: It is known that Fe^2+/Fe^3+ redox chemistry has an important role in the bioactivity of ferrocene derivatives.[33] The production of reactive oxygen species (ROS) is one of the modes of action of ferroquine and other ferrocene derivatives[34] and is linked to the correlation between their bioactivity and electrochemical behavior. We determined whether a similar correlation could be made for the mixed-ligand platinum(II) complexes reported herein given that metal centers have the potential to be oxidized and reduced. The electrochemistry of the complexes was studied using cyclic voltammetry (CV), which uses a triangular potential waveform. The CV experiments were performed in either dry MeOH or DMF containing tetrabutylammonium chloride (TBACl) as the supporting electrolyte. The working electrode was glassy carbon with a platinum wire as the counter electrode and Ag/AgCl as the reference. The anodic (Epa) and cathodic (Epc) peak potentials at 0.1 V/s and half-wave potentials (E1/2) were measured (Table 3). All of the tested complexes undergo reversible one-electron Pt^2+/Pt^+ reductions (Figures S38–S46). Complexes C2, C4, and C8 undergo a second nonreversible reduction (Epc2), which is most likely ligand-based and linked to reductions of the substituent on the bpy. Looking at SAR2, the more electron-withdrawing the substituent, the […] the E1/2 (V vs Fe/Fe^+) value was. This trend was expected, as a more electron-withdrawing substituent reduces the electron density around the metal center, making it easier for the metal to be reduced from Pt^2+ to Pt^+. […] This is also the case for other bpy-containing platinum(II) complexes that only undergo reductions.[35],[36] […]
For the cyclic voltammetry experiments a solution of the test compound (1 x 10-3) in DMSO (3 mL) is added to the electrolyte solution (0.1 M tetrabutylammonium chloride (TBACl) in DMSO). The electrochemical measurements were obtained using a Basi Epsilon Eclipse Electrochemical Analyzer Potentiostat and the CV graphs were generated using Excel. The working electrode was glassy carbon (GC) with platinum wire as the counter electrode (CE) and Ag/AgCl as the reference. […]

[2] = Single-point microsomal metabolic stability, human; type: in vitro ADME; settings: human liver microsomes; for Microsomal metabolic stability (% remaining after 30 min) Human: 1 µM
Protocol: (§1) 1.8. Microsomal metabolic stability studies […]
(§2) rat IGS, Xenotech), and mouse (male mouse CD1, Xenotech) liver microsomes (0.4 mg/ml) for 30 min at 37 °C. Reactions were quenched by adding ice-cold acetonitrile containing […]
(§3) disappearance of the parent compound. Half-life, clearance, and hepatic excretion ratios were determined using standard equations.6,7 Propranolol. […]

PfK1 ABS parasites = type: cell-based, Plasmodium falciparum; settings: for IC50: ABS, SYBR Green I, 96 h, mean ± S.E.; for RI (resistance index): RI = PfK1 IC50/PfNF54 IC50
Protocol: (§4) The parasites were incubated under drug […]
(§5) incubation, parasite survival was determined by adding equal volumes of parasite suspension (100 µL) and SYBR Green I lysis buffer (0.2% µL/mL of 10 000x SYBR Green I, 20 mM Tris-HCl, pH 7.5, 5 mM EDTA, 0.008% saponin (w/v) and 0.08% Triton x-100). This was incubated for 1 hour at room temperature in the dark. […]

PfNF54 ABS parasites = assay: SYBR Green I-based proliferative assay, PfNF54 ABS parasites; type: cell-based, Plasmodium falciparum; settings: ABS, SYBR Green I, 96 h; mean ± S.E., N = 3 (no S.E.: N = 1)
Protocol: as §4, §5

[3] = system: late-stage gametocytes (NF54-PfS16-GFP-Luc); assay: Luciferase reporter assay, late-stage gametocytes; type: cell-based, Plasmodium falciparum; settings: for LG (% inhibition) 1 µM / LG (% inhibition) 5 µM: single biological repeat; for IC50: late (IV/V) gametocytes, luciferase, 48 h, read-out: LG IC50
Protocol: (§6) All the complexes were tested for their early- and late-stage gametocyte activity in a dual-point assay (1 μM and 5 μM). […]
(§7) 1.5.In vitro activity against gametocyte stages
(§8) PfNF54 gametocytes were prepared and isolated according to the method reported by Reader […]
(§9) The in vitro gametocyte activity of the synthesized complexes was determined using a luciferase reporter line-based assay.
(§10) NF54-PfS16-GFP-Luc parasites were used for the stage-specific assessment of gametocytocidal activity. Early-stage gametocyte (stage I-III) experiments were performed on day 5 (representing >90% of early-stage and late-stage gametocyte (stages IV/V) experiments were performed on day 10. In each experiment, assays were set up with the use of 2-3% […]
(§11) Luciferase activity was determined in 30 µL parasite lysates by adding luciferin substrate (30 µL) (Promega Luciferase Assay System) at room temperature. […]

ABS parasites = assay: Dual point activity against ABS parasites; type: cell-based, Plasmodium falciparum; settings: single biological repeat
From the text: Table S2: Dual point activity of platinum(II) complexes against ABS parasites, early- and late-
stage gametocytes. Values are averaged from technical triplicates performed for a single

[4] = Single-point microsomal metabolic stability, mouse; type: in vitro ADME; settings: for Microsomal metabolic stability (% remaining after 30 min) Mouse: mouse liver microsomes, 1 µM
Protocol: as §1, §2, §3

[5] = system: early-stage gametocytes (NF54-PfS16-GFP-Luc); assay: Luciferase reporter assay, early-stage gametocytes; type: cell-based, Plasmodium falciparum; settings: for EG (% inhibition) 1 µM / EG (% inhibition) 5 µM: single biological repeat; for IC50: early (II/III) gametocytes, luciferase, 48 h, read-out: EG IC50
Protocol: as §6, §7, §8, §9, §10, §11

[6] = system: Chinese hamster ovary (CHO) cell line; assay: MTT cytotoxicity assay; type: cell-based; settings: 48 h, read-out: CHO IC50
Protocol: 1.6.In vitro cytotoxicity assay
A 3-(4,5-dimethylthiazol-2-yl)-2,5-diphenyltetrazoliumbromide (MTT) assay was used to screen the metal complexes against the mammalian Chinese hamster ovarian (CHO) cell line.
A stock solution of each compound (2 mg/mL) in DMSO was prepared and kept at -20 °C until needed. Emetine was used as a reference drug. A starting concentration of 100 µg/mL was used, and serially diluted ten-fold using a complete medium to give the lowest concentration of 0.001 µg/mL (6 dilutions). The plates containing the CHO cells under drug pressure were […]
Plates containing the drug and cell suspension were developed by adding 25 μL of sterile MTT (Thermo Fisher Scientific) (25 µL) to each well, followed by 4 h […]
of incubation at room temperature in the dark. The plates were then centrifuged, and the supernatant was removed via aspiration. Sample absorbance was read at a wavelength of 540 […]
analysis via GraphPad Prism v.4.0 software. The IC50 values were determined for each compound were determined from the dose-response curves. […]

PfNF54 = assay: 72 h pLDH assay, PfNF54 (precursor compounds); type: cell-based, Plasmodium falciparum; settings: for inhibition of Pf proliferation: maximum concentration of 5 μM, PfNF54; for IC50: read-out: PfNF54 IC50
Protocol: Lastly, the pharmacological effect of substitution with a methyl group at different positions on the bpy ring was determined (SAR4). Changing from the 4,4′-positions (C2) to the 5,5′-positions (C14) improved the PfNF54 activity by 5-fold, whereas changing to the 6,6′-positions (C15) decreased the activity by 2-fold.

Pf3D7 strain = settings: cited from earlier work
PfK1 = settings: cited from earlier work
[7] = half-wave potential corrected to ferrocene

Row | Compound | Epa1 (Cyclic voltammetry) | Epc1 (Cyclic voltammetry) | Microsomal metabolic stability (% remaining after 30 min) Human [2] | IC50 (PfK1 ABS parasites) | IC50 (PfNF54 ABS parasites) | LG (% inhibition) 1 µM [3] | LG (% inhibition) 5 µM [3] | IC50 [3] | ABS (% inhibition) 1 µM (ABS parasites) | ABS (% inhibition) 5 µM (ABS parasites) | Microsomal metabolic stability (% remaining after 30 min) Mouse [4] | EG (% inhibition) 1 µM [5] | EG (% inhibition) 5 µM [5] | IC50 [5] | IC50 ([6]; cytotoxicity, MTT, N, n = 1, 3) | other results
1 | Cc1cc[n+]2c(c1)-c1cc(C)cc[n+]1[Pt-2]21[O+]=C(c2ccccc2)N=C(N(CCO)CCO)[S]1.[Cl-] [C2] | –1.074 V | –1.016 V | 70 % remaining | 0.541 ± 0.044 µM | 1.42 ± 0.276 µM | 11.3 % inhibition | 25.5 % inhibition | > 20 µM | 70.9 % inhibition | 104.0 % inhibition | 72 % remaining | 19.9 % inhibition | 7.9 % inhibition | > 20 µM | > 50 µM | Aqueous solubility pH 6.5 [1]: 170 μM; E1/2 (Cyclic voltammetry; half-wave potential): –1.045 V vs Ag/Ag^+; E1/2 (Cyclic voltammetry; [7]): –1.585 V vs Fe/Fe^+; Epc2 (Cyclic voltammetry): –1.084 V vs Ag/Ag^+; RI (resistance index) (PfK1 ABS parasites): 0.4
2 | OCCN(CCO)C1=NC(c2ccccc2)=[O+][Pt-2]2([S]1)[n+]1ccccc1-c1cccc[n+]12.[Cl-] [C3] | –1.210 V | –1.014 V | 72 % remaining | 0.184 ± 0.022 µM | 0.142 ± 0.012 µM | 14.8 % inhibition | 39.8 % inhibition | > 20 µM | 68.7 % inhibition | 103.1 % inhibition | 75 % remaining | 26.9 % inhibition | 0.0 % inhibition | > 20 µM | > 50 µM | –
3 | COc1cc[n+]2c(c1)-c1cc(OC)cc[n+]1[Pt-2]21[O+]=C(c2ccccc2)N=C(N(CCO)CCO)[S]1.[Cl-] [C4] | –1.136 V | –1.064 V | 63 % remaining | 0.164 ± 0.007 µM | 0.266 ± 0.029 µM | 14.8 % inhibition | 54.4 % inhibition | > 20 µM | 67.1 % inhibition | 99.8 % inhibition | 88 % remaining | 6.8 % inhibition | 9.1 % inhibition | > 20 µM | > 50 µM | Aqueous solubility pH 6.5 [1]: 195 μM; E1/2 (Cyclic voltammetry; half-wave potential): –1.100 V vs Ag/Ag^+; E1/2 (Cyclic voltammetry; [7]): –1.640 V vs Fe/Fe^+; Epc2 (Cyclic voltammetry): –1.515 V vs Ag/Ag^+; RI (resistance index) (PfK1 ABS parasites): 0.6
4 | [Cl][Pt-2]([Cl])([Cl])[Cl].[K+].[K+] [K2PtCl4, potassium tetrachloroplatinate] | – | – | – | – | – | – | – | – | – | – | – | – | – | – | > 50 µM | inhibition of Pf proliferation (PfNF54): did not inhibit Pf proliferation; IC50 (PfNF54; precursor compounds, 72 h pLDH assay): > 5 µM
5 | CS(=O)(=O)c1ccc(-c2cnc(N)c(-c3ccc(C(F)(F)F)nc3)c2)cc1 [MMV390048, reference compound] | – | – | – | – | – | – | – | – | – | – | – | – | – | – | – | solubility at 24 h ([1]; phosphate buffer, 25 °C, pH 6.5, aqueous buffer, thermodynamic from solid): < 5 µM; remaining at 0.5 h, 1 µM ([2]; both sexes, 30 min, read-out: Microsomal metabolic stability (% remaining after 30 min) Human): > 95%; remaining at 0.5 h, 1 µM ([4]; male, CD1, mouse liver microsomes, 30 min, read-out: Microsomal metabolic stability (% remaining after 30 min) Mouse): > 95%
6 | O=C(NC(=S)N(CCO)CCO)c1ccccc1 [compound 2] | – | – | – | – | – | – | – | – | – | – | – | – | – | – | – | IC50 (PfNF54; Plasmodium falciparum, 72 h): > 5 µM; inhibition of Pf proliferation (PfNF54): did not inhibit Pf proliferation; IC50 ([6]; Cricetulus griseus, CHO): > 50 µM
7 | ferroquine [FQ] | – | – | – | – | – | – | – | – | – | – | – | – | – | – | – | fold increase in activity compared to CQ (Pf3D7 strain): 1.7 fold; fold increase in activity compared to CQ (PfK1): 25 fold

From paper PMC11912270, “Synthesis and SAR Studies of Acyl-Thiourea Platinum(II) Complexes Yield Analogs with Dual-Stage Antiplasmodium Activity” (ACS Medicinal Chemistry Letters, 2025)
